Legend:
Rattus norvegicus [1] = assay: Effect on behavioural activity in rat assessed as cocaine-induced lever response at 10 mg/kg, po pretreated with cocaine for 360 mins by drug-discrimination studies; type: functional
Rattus norvegicus [2] = assay: Effect on behavioural activity in rat assessed as cocaine-induced lever response at 50 mg/kg, po pretreated with cocaine for 45 mins by drug-discrimination studies; type: functional
Rattus norvegicus [3] = assay: Effect on behavioural activity in rat assessed as cocaine-induced lever response at 2.5 mg/kg, po pretreated with cocaine for 180 mins by drug-discrimination studies; type: functional
Rattus norvegicus [4] = assay: Effect on behavioural activity in rat assessed as cocaine-induced lever response at 200 mg/kg, po pretreated with cocaine for 45 mins by drug-discrimination studies; type: functional
Rattus norvegicus [5] = assay: Effect on behavioural activity in rat assessed as cocaine-induced lever response at 200 mg/kg, po pretreated with cocaine for 360 mins by drug-discrimination studies; type: functional
Rattus norvegicus [6] = assay: Effect on behavioural activity in rat assessed as cocaine-induced lever response at 5 mg/kg, po pretreated with cocaine for 90 mins by drug-discrimination studies; type: functional
Rattus norvegicus [7] = assay: Effect on behavioural activity in rat assessed as cocaine-induced lever response at 200 mg/kg, po pretreated with cocaine for 90 mins by drug-discrimination studies; type: functional
Rattus norvegicus [8] = assay: Effect on behavioural activity in rat assessed as cocaine-induced lever response at 2.5 mg/kg, po pretreated with cocaine for 45 mins by drug-discrimination studies; type: functional
Rattus norvegicus [9] = assay: Effect on behavioural activity in rat assessed as cocaine-induced lever response at 25 mg/kg, po pretreated with cocaine for 90 mins by drug-discrimination studies; type: functional
[10] = molecular target: T1, Sodium-dependent serotonin transporter (Homo sapiens, UniProt P31645); assay: biochemical; type: cell-based, HEK293
Rattus norvegicus [11] = assay: Effect on behavioural activity in rat assessed as cocaine-induced lever response at 5 mg/kg, ip pretreated with cocaine for 30 mins by drug-discrimination studies; type: functional; conditions: route intraperitoneal
Rattus norvegicus [12] = assay: Effect on behavioural activity in rat assessed as cocaine-induced lever response at 50 mg/kg, po pretreated with cocaine for 90 mins by drug-discrimination studies; type: functional
Rattus norvegicus [13] = assay: Effect on behavioural activity in rat assessed as cocaine-induced lever response at 10 mg/kg, po pretreated with cocaine for 90 mins by drug-discrimination studies; type: functional
Rattus norvegicus [14] = assay: Effect on behavioural activity in rat assessed as cocaine-induced lever response at 2.5 mg/kg, po pretreated with cocaine for 90 mins by drug-discrimination studies; type: functional
Rattus norvegicus [15] = assay: Effect on behavioural activity in rat assessed as cocaine-induced lever response at 10 mg/kg, po pretreated with cocaine for 45 mins by drug-discrimination studies; type: functional
Rattus norvegicus [16] = assay: Effect on behavioural activity in rat assessed as cocaine-induced lever response at 100 mg/kg, po pretreated with cocaine for 360 mins by drug-discrimination studies; type: functional
Mus musculus [17] = assay: Antidepressant activity in ip dosed mouse assessed as stimulation of locomotor activity relative to cocaine; type: functional
Rattus norvegicus [18] = assay: Effect on behavioural activity in rat assessed as cocaine-induced lever response at 200 mg/kg, po pretreated with cocaine for 180 mins by drug-discrimination studies; type: functional
Rattus norvegicus [19] = assay: Effect on behavioural activity in rat assessed as cocaine-induced lever response at 25 mg/kg, ip pretreated with cocaine for 30 mins by drug-discrimination studies; type: functional; conditions: route intraperitoneal
Rattus norvegicus [20] = assay: Effect on behavioural activity in rat assessed as cocaine-induced lever response at 25 mg/kg, po pretreated with cocaine for 180 mins by drug-discrimination studies; type: functional
Rattus norvegicus [21] = assay: Effect on behavioural activity in rat assessed as cocaine-induced lever response at 5 mg/kg, po pretreated with cocaine for 180 mins by drug-discrimination studies; type: functional
Mus musculus [22] = assay: Antidepressant activity in ip dosed mouse assessed as time to reach peak stimulation of locomotor activity; type: functional
Mus musculus [23] = assay: Antidepressant activity in ip dosed mouse assessed as stimulation of locomotor activity; type: functional
Rattus norvegicus [24] = assay: Effect on behavioural activity in rat assessed as cocaine-induced lever response at 25 mg/kg, po pretreated with cocaine for 45 mins by drug-discrimination studies; type: functional
Rattus norvegicus [25] = assay: Effect on behavioural activity in rat assessed as cocaine-induced lever response at 10 mg/kg, ip pretreated with cocaine for 30 mins by drug-discrimination studies; type: functional; conditions: route intraperitoneal
Rattus norvegicus [26] = assay: Effect on behavioural activity in rat assessed as cocaine-induced lever response at 100 mg/kg, po pretreated with cocaine for 45 mins by drug-discrimination studies; type: functional
Mus musculus [27] = assay: Antidepressant activity in ip dosed mouse assessed as duration of locomotor activity; type: functional
Rattus norvegicus [28] = assay: Effect on behavioural activity in rat assessed as cocaine-induced lever response at 50 mg/kg, po pretreated with cocaine for 360 mins by drug-discrimination studies; type: functional
Rattus norvegicus [29] = assay: Effect on behavioural activity in ip dosed rat assessed as cocaine-induced lever response pretreated with cocaine by drug-discrimination studies; type: functional
Rattus norvegicus [30] = assay: Effect on behavioural activity in po dosed rat assessed as cocaine-induced lever response pretreated with cocaine by drug-discrimination studies; type: functional
Rattus norvegicus [31] = assay: Effect on behavioural activity in rat assessed as cocaine-induced lever response at 100 mg/kg, po pretreated with cocaine for 90 mins by drug-discrimination studies; type: functional
Rattus norvegicus [32] = assay: Effect on behavioural activity in rat assessed as cocaine-induced lever response at 25 mg/kg, po pretreated with cocaine for 360 mins by drug-discrimination studies; type: functional
Rattus norvegicus [33] = assay: Effect on behavioural activity in rat assessed as cocaine-induced lever response at 10 mg/kg, po pretreated with cocaine for 180 mins by drug-discrimination studies; type: functional
Rattus norvegicus [34] = assay: Effect on behavioural activity in rat assessed as cocaine-induced lever response at 50 mg/kg, po pretreated with cocaine for 180 mins by drug-discrimination studies; type: functional
Rattus norvegicus [35] = assay: Effect on behavioural activity in rat assessed as cocaine-induced lever response at 2.5 mg/kg, po pretreated with cocaine for 360 mins by drug-discrimination studies; type: functional
[36] = molecular target: T2, Sodium-dependent noradrenaline transporter (Homo sapiens, UniProt P23975); assay: Displacement of [125I]RTI55 from cloned human NET expressed in HEK293 cells; type: cell-based
Rattus norvegicus [37] = assay: Effect on behavioural activity in rat assessed as cocaine-induced lever response at 100 mg/kg, po pretreated with cocaine for 180 mins by drug-discrimination studies; type: functional
Rattus norvegicus [38] = assay: Effect on behavioural activity in rat assessed as cocaine-induced lever response at 5 mg/kg, po pretreated with cocaine for 360 mins by drug-discrimination studies; type: functional
Rattus norvegicus [39] = assay: Effect on behavioural activity in rat assessed as cocaine-induced lever response at 5 mg/kg, po pretreated with cocaine for 45 mins by drug-discrimination studies; type: functional
Rattus norvegicus [40] = assay: Effect on behavioural activity in rat assessed as cocaine-induced lever response at 2.5 mg/kg, ip pretreated with cocaine for 30 mins by drug-discrimination studies; type: functional; conditions: route intraperitoneal
Rattus norvegicus [41] = assay: Effect on behavioural activity in rat assessed as cocaine-induced lever response at 50 mg/kg, ip pretreated with cocaine for 45 mins by drug-discrimination studies; type: functional; conditions: route intraperitoneal
Rattus norvegicus [42] = assay: Effect on behavioural activity in rat assessed as cocaine-induced lever response at 25 mg/kg, ip pretreated with cocaine for 45 mins by drug-discrimination studies; type: functional; conditions: route intraperitoneal
[43] = molecular target: T3, Sodium-dependent dopamine transporter (Homo sapiens, UniProt Q01959); assay: Displacement of [125I]RTI55 from cloned human DAT expressed in HEK293 cells; type: cell-based
Rattus norvegicus [44] = assay: Toxicity in rat assessed as adverse effects at 50 mg/kg, ip; type: organism-based; set-up: dose 50 mg/kg, route intraperitoneal; conditions: in vivo
[45] = molecular target: T3, Sodium-dependent dopamine transporter; assay: Inhibition of [3H]dopamine reuptake at human DAT expressed in HEK293 cells; type: cell-based
Rattus norvegicus [46] = assay: Effect on behavioural activity in rat assessed as cocaine-induced lever response at 5 mg/kg, ip pretreated with cocaine for 60 mins by drug-discrimination studies; type: functional; conditions: route intraperitoneal
Rattus norvegicus [47] = assay: Effect on behavioural activity in rat assessed as cocaine-induced lever response at 10 mg/kg, ip pretreated with cocaine for 60 mins by drug-discrimination studies; type: functional; conditions: route intraperitoneal
Rattus norvegicus [48] = assay: Effect on behavioural activity in rat assessed as cocaine-induced lever response at 25 mg/kg, ip pretreated with cocaine for 60 mins by drug-discrimination studies; type: functional; conditions: route intraperitoneal
[49] = molecular target: T1, Sodium-dependent serotonin transporter; assay: Inhibition of [3H]serotonin reuptake at human SERT expressed in HEK293 cells; type: cell-based
[50] = molecular target: T2, Sodium-dependent noradrenaline transporter; assay: Inhibition of [3H]norepinephrine reuptake at human NET expressed in HEK293 cells; type: cell-based
Rattus norvegicus [51] = assay: Effect on behavioural activity in rat assessed as cocaine-induced lever response at 10 mg/kg, ip pretreated with cocaine for 75 mins by drug-discrimination studies; type: functional; conditions: route intraperitoneal
Rattus norvegicus [52] = assay: Effect on behavioural activity in rat assessed as cocaine-induced lever response at 50 mg/kg, ip pretreated with cocaine for 75 mins by drug-discrimination studies; type: functional; conditions: route intraperitoneal
Rattus norvegicus [53] = assay: Effect on behavioural activity in rat assessed as cocaine-induced lever response at 100 mg/kg, ip pretreated with cocaine for 75 mins by drug-discrimination studies; type: functional; conditions: route intraperitoneal
Rattus norvegicus [54] = assay: Effect on behavioural activity in rat assessed as cocaine-induced lever response at 25 mg/kg, ip pretreated with cocaine for 75 mins by drug-discrimination studies; type: functional; conditions: route intraperitoneal

T2 sequence (P23975 whole entry): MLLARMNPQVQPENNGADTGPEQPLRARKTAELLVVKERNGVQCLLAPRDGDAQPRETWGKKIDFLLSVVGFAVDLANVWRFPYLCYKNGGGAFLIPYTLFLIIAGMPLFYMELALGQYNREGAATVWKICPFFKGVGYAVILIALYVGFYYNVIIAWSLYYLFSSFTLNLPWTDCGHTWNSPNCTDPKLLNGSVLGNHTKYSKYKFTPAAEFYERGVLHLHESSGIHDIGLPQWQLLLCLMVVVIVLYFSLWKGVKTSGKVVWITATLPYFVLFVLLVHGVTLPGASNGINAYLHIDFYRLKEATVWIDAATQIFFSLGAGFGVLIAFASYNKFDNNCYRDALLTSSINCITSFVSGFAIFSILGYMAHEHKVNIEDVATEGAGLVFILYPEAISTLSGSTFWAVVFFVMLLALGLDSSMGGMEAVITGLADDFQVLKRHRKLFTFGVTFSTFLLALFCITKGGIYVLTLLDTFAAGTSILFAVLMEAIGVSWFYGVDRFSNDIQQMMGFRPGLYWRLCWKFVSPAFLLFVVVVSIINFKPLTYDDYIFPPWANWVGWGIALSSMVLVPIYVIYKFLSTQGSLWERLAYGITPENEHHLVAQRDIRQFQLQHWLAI
T1 sequence (P31645 whole entry): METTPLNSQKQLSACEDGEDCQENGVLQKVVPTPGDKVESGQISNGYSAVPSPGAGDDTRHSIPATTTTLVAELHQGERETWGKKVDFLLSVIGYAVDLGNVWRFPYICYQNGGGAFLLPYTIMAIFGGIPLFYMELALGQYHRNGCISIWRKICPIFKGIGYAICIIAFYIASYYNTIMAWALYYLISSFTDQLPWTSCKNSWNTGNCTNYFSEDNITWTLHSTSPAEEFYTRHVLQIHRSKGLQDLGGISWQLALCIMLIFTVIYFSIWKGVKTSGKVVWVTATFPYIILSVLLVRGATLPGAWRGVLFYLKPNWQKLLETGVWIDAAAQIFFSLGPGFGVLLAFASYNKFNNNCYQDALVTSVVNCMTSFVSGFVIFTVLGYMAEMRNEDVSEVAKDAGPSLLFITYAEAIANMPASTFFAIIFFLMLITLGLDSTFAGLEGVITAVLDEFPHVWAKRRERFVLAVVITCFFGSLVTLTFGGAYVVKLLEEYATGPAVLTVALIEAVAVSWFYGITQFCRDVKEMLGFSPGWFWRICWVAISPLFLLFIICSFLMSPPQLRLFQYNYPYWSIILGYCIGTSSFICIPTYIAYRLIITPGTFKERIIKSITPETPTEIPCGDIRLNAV
T3 sequence (Q01959 whole entry): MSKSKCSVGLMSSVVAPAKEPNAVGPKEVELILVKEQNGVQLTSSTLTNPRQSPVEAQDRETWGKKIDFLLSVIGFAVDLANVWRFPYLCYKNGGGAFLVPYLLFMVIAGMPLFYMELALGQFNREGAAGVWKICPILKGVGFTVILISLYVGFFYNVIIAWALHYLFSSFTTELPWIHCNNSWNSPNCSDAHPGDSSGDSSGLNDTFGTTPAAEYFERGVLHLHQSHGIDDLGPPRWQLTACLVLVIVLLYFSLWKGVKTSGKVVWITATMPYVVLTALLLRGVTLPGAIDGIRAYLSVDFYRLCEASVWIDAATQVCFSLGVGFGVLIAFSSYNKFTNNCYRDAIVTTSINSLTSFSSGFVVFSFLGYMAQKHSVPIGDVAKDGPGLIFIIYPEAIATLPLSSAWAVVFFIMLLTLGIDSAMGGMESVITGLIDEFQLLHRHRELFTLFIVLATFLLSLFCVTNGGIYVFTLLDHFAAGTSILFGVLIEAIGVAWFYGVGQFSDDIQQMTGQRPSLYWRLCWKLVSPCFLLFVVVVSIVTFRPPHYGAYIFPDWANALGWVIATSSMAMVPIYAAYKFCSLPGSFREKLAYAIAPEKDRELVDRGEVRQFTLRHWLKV

CC(NC(C)(C)C)C(=O)c1cccc(Br)c1 (configuration not stated)
Activity (Rattus norvegicus [1]): 0%
Activity (Rattus norvegicus [2]): 51%
Activity (Rattus norvegicus [3]): 0%
Activity (Rattus norvegicus [4]): 100%
Activity (Rattus norvegicus [5]): 34%
Activity (Rattus norvegicus [6]): 15%
Activity (Rattus norvegicus [7]): 100%
Activity (Rattus norvegicus [8]): 13%
Activity (Rattus norvegicus [9]): 0%
Ki [10]: > 10 µM
Activity (Rattus norvegicus [11]): 34.4%
Activity (Rattus norvegicus [12]): 21%
Activity (Rattus norvegicus [13]): 0%
Activity (Rattus norvegicus [14]): 0%
Activity (Rattus norvegicus [15]): 0%
Activity (Rattus norvegicus [16]): 14%
Activity (Mus musculus [17]): 57%
Activity (Rattus norvegicus [18]): 5%
Activity (Rattus norvegicus [19]): 83.6%
Activity (Rattus norvegicus [20]): 0%
Activity (Rattus norvegicus [21]): 0%
Time to peak locomotor stimulation (Mus musculus [22]): 0 min
ED50 (Mus musculus [23]): 13.5 mg/kg
Activity (Rattus norvegicus [24]): 17%
Activity (Rattus norvegicus [25]): 21%
Activity (Rattus norvegicus [26]): 67%
Time (Mus musculus [27]): 90 min
Activity (Rattus norvegicus [28]): 0%
ED50 (Rattus norvegicus [29]): 39.6 mg/kg
ED50 (Rattus norvegicus [30]): 52.9 mg/kg
Activity (Rattus norvegicus [31]): 56%
Activity (Rattus norvegicus [32]): 0%
Activity (Rattus norvegicus [33]): 0%
Activity (Rattus norvegicus [34]): 0%
Activity (Rattus norvegicus [35]): 33%
Ki [36]: > 7.14 µM
Activity (Rattus norvegicus [37]): 34%
Activity (Rattus norvegicus [38]): 7%
Activity (Rattus norvegicus [39]): 0%
Activity (Rattus norvegicus [40]): 0.3%

CCCCCC(NC(C)(C)C)C(=O)c1cccc(Cl)c1 (configuration not stated)
Ki [10]: > 10 µM
Activity (Rattus norvegicus [41]): 50.9%
Activity (Mus musculus [17]): 90%
Time to peak locomotor stimulation (Mus musculus [22]): 60 min
ED50 (Mus musculus [23]): 12.9 mg/kg
Time (Mus musculus [27]): 280 min
Activity (Rattus norvegicus [42]): 1%

CC(C)(C)NC(CCC1CCCCC1)C(=O)c1cccc(Cl)c1 (configuration not stated)
Ki [43]: 1.7 µM
Ki [10]: 6.2 µM
Activity (Rattus norvegicus [44]): Toxic
Activity (Mus musculus [17]): 33%
IC50 [45]: > 10 µM
Time to peak locomotor stimulation (Mus musculus [22]): 60 min
ED50 (Mus musculus [23]): 14.1 mg/kg
Activity (Rattus norvegicus [46]): 0.2%
Time (Mus musculus [27]): 160 min
Activity (Rattus norvegicus [47]): 0.7%
Activity (Rattus norvegicus [48]): 69.6%
IC50 [49]: > 10 µM
Ki [36]: 3.8 µM
IC50 [50]: > 10 µM

CCCCCCC(NC(C)(C)C)C(=O)c1cccc(Cl)c1 (configuration not stated)
Activity (Rattus norvegicus [2]): 83%
Activity (Rattus norvegicus [9]): 0%
Ki [10]: > 10 µM
Activity (Rattus norvegicus [12]): 17%
Activity (Rattus norvegicus [13]): 0%
Activity (Rattus norvegicus [15]): 0%
Activity (Mus musculus [17]): 94%
Activity (Rattus norvegicus [51]): 0%
Activity (Rattus norvegicus [20]): 0%
Time to peak locomotor stimulation (Mus musculus [22]): 110 min
ED50 (Mus musculus [23]): 5.6 mg/kg
Activity (Rattus norvegicus [24]): 0%
Time (Mus musculus [27]): 130 min
Activity (Rattus norvegicus [28]): 0%
ED50 (Rattus norvegicus [30]): 46.9 mg/kg
Activity (Rattus norvegicus [32]): 0%
Activity (Rattus norvegicus [52]): 49.9%
Activity (Rattus norvegicus [53]): 67.2%
Activity (Rattus norvegicus [33]): 0%
Activity (Rattus norvegicus [34]): 25%
Activity (Rattus norvegicus [54]): 48.5%
